Legend:
[1] = test system: T24 (human urinary bladder carcinoma) cells; test: MTT cell viability assay, T24; type: cell-based; settings: 24 h and 48 h; 5, 10, 15 and 15 μM; vs untreated control
Procedure: (§1) The cells were seeded into 96-well plates at a starting density of 10^4 cells per well and cultured overnight before DEA was added to the medium for 24 h and 48 h. The medium was changed to a fresh one containing 0.5% of 3-[4,5-dimethylthiazol-2-yl]-2,5-diphenyl-tetrazolium bromide (MTT+) for an additional 3 hours, then the MTT+ reaction was terminated by adding HCl to 10 mM final concentration. The amount of blue formazan dye formed from MTT+ was proportional to the number of live cells, and was determined with an Anthos Labtech 2010 ELISA reader at 550 nm. All experiments were run in at least 4 replicates and repeated 3 times.
The effect of desethylamiodarone was measured in T24 (human urinary bladder carcinoma), A549 (human lung adenocarcinoma epithelial), B16F10 (mice melanoma), HeLa (human cervix adenocarcinoma), 4T1 (mouse mammary carcinoma) cell lines. Cells were treated with increasing concentrations of desethylamiodarone for 24 and 48 h. Cell growth was assessed by measuring metabolic activity, which reflects viability in the MTT-test in the course of 24 h, 48 h of continued exposure to desethylamiorarone. The untreated cells served as negative controls. […]
T24 cells were exposed for 24 h (A), 48 h (B) to […], 10 μM, 15 μM and 15 μM desethylamiodarone (filled bars). Viability of the cells was detected by the MTT+ method. […]

[2] = test system: B16F10 (mice melanoma) cells; test: MTT cell viability assay, B16F10; type: cell-based; settings: 24 h and 48 h; 2.5, 5, 7.5 or 10 μM; vs untreated control
Procedure: The cells were seeded into 96-well plates at a starting density of 10^4 cells per well and cultured overnight before DEA was added to the medium for 24 h and 48 h. […] The amount of blue formazan dye formed from MTT+ was proportional to the number of live cells, and was determined with an Anthos Labtech 2010 ELISA reader at 550 nm. All experiments were run in at least 4 replicates and repeated 3 times. The effect of desethylamiodarone was measured in T24 (human urinary bladder carcinoma), A549 (human lung adenocarcinoma epithelial), B16F10 (mice melanoma), HeLa (human cervix adenocarcinoma), 4T1 (mouse mammary carcinoma) cell lines. Cells were treated with increasing concentrations of desethylamiodarone for 24 and 48 h. Cell growth was assessed by measuring metabolic activity, which reflects viability in the MTT-test in the course of 24 h, 48 h of continued exposure to desethylamiorarone. The untreated cells served as negative controls. The viability of the cells, was lower in all DEA-treated than in the control group, with the difference being statistically significant. […] B16F10 cells were incubated with the indicated concentrations (2.5, 5, 7.5 or 10 μM) of desethylamiodarone for 24 h (A) and 48 h (B) and cell viability was measured by MTT assay (filled bars). Untreated cells served as controls. […]

[3] = test system: HeLa (human cervix adenocarcinoma) cells; test: MTT cell viability assay, HeLa; type: cell-based; settings: increasing concentrations, 24 and 48 h
Procedure: as §1
The effect of desethylamiodarone was measured in T24 (human urinary bladder carcinoma), A549 (human lung adenocarcinoma epithelial), B16F10 (mice melanoma), HeLa (human cervix adenocarcinoma), 4T1 (mouse mammary carcinoma) cell lines. Cells were treated with increasing concentrations of desethylamiodarone for 24 and 48 h. Cell growth was assessed by measuring metabolic activity, which reflects viability in the MTT-test in the course of 24 h, 48 h of continued exposure to desethylamiorarone. The untreated cells served as negative controls. The viability of the cells, was lower in all DEA-treated than in the control group, with the difference being statistically significant.

[4] = test system: DU-145 prostate cancer cell line; test: MTT cell viability assay, DU-145; type: cell-based; settings: increasing concentrations, 24, 48 and 72 hours
Procedure: as §1
145 cells were exposed to increasing concentrations of DEA for 24, 48 and 72 hours. Viability of the cells was detected by the MTT method. Untreated cells served as controls.

[5] = test system: T24/83 human urinary bladder carcinoma cell line; test: Colony formation assay, T24; type: cell-based; settings: 7 days; 500 nM-3 μM
Procedure: Cells were trypsinized and plated in triplicate into 6-well plates at 500 cells/well. Cells were treated with different concentration of Dea. After 7 days of incubation, cells were washed and stained with Coomassie-blue, and the colonies containing more than 50 cells were counted. The number of colonies were determined and normalized to the number of colonies in controls.
To assess the recovery ability of cells that survived treatment, long-term (7 days) colony formation assay was performed.
Untreated cells served as controls. The results are mean±SEM of 3 independent experiments performed in at least quadruplicate. p<0.01 compared to the corresponding control group. The data shown on FIG. 5 provide evidence that DEA can be useful to treat bladder cancer.

[6] = test system: HeLa human cervix adenocarcinoma cell line; test: Colony formation assay, HeLa; type: cell-based; settings: one week; 1, 1.5, 2, 2.5 or 3 μM
Procedure: Cells were trypsinized and plated in triplicate into 6-well plates at 500 cells/well. Cells were treated with different concentration of Dea. After 7 days of incubation, cells were washed and stained with Coomassie-blue, and the colonies containing more than 50 cells were counted. The number of colonies were determined and normalized to the number of colonies in controls. To assess the recovery ability of cells that survived treatment, long-term (7 days) colony formation assay was performed. […] HeLa cells were incubated with the indicated concentrations of desethylamiodarone (1, 1.5, 2, 2.5 or 3 μM for one week and cell colonies were fixed, stained and counted. (A-B) Data are expressed as the mean±SD of ≧3 experiments; a p<0.01 is considered statistically significant The data shown on FIG. 8 provide evidence that DEA can be useful to cervix carcinoma.

[7] = test system: p42/44 mitogen-activated protein kinase (MAPK) (ERK1/2); test: Western blot of ERK phosphorylation; type: cell-based, human; settings: 5-10-15 μM, 6 hours; T24, B16F10 cell lines
Procedure: 10^6 cells were seeded into regular plates and treated as for the cell viability assay. Cells were harvested at intervals in a chilled lysis buffer containing 0.5 mM sodium-metavanadate, 1 mM ethylenediaminetetraacetic acid (EDTA) and protease inhibitor cocktail in phosphate-buffered saline (PBS). Probes were boiled and subjected to 10% sodium dodecyl sulphate polyacrylamide gel electrophoresis then transferred to nitrocellulose membranes. The membranes were blocked in 5% low fat milk for 1.5 h at room temperature then exposed to primary antibodies at 4° C. overnight in blocking solution. Appropriate horseradish peroxidase-conjugated secondary antibodies were used at a 1:5000 dilution (anti-mouse and anti-rabbit IgGs; Sigma-Aldrich, Steinheim, Germany) and visualized by enhanced chemiluminescence (Amersham Biosciences, Piscataway, N.J., USA). All experiments were repeated 3 times.
To determine the downstream consequences of DEA treatment, we examined the phosphorylation status of AKT (protein kinase B), GSK-3β and p42/44 mitogen-activated protein kinase (MAPK) (ERK1/2) by immunoblotting in T24 (human urinary bladder carcinoma), B16F10 (mice melanoma) cell lines. Cells were cultured in the presence of 5-10-15 μM DEA for 6 hours. The cells were prepared and western blot analysis was carried out to perform both phosphorylated and non-phosphorylated forms of the previously listed proteins. […]

[8] = test system: mitochondrial permeability transition; settings: applicants' previous published results; cited from earlier work

CCCCc1oc2ccccc2c1C(=O)c1cc(I)c(OCCNCC)c(I)c1 [DEA, (2-butyl-3-benzofuranyl)[4-[2-(ethylamino)ethoxy]-3,5-diiodophenyl]-methanone]
Viability of T24 cells (MTT) [1]: Significantly different from control group at p<0.01 | Viability of B16F10 cells (MTT) [2]: Significantly different from control group at p<0.01 | Viability of HeLa cells (MTT) [3]: significantly inhibited the viability | Viability of DU-145 cells (MTT) [4]: induces cell death | Colony formation, T24 [5]: significant decrease in the number and the size of colonies | Colony formation, HeLa [6]: significant decrease in the number and the size of colonies | ERK phosphorylation [7]: a decrease in its phosphorylation | Mitochondrial permeability transition [8]: caused mitochondrial permeability transition
